This is an account of results in patent publication US20100280024A1, “RENIN INHIBITORS” (priority 2007, published 2010).

Structures can show the parent of a compound that is named as a salt.

This assay has as its target T1, Renin (Homo sapiens, UniProt P00797).
T1 sequence (P00797 67-406): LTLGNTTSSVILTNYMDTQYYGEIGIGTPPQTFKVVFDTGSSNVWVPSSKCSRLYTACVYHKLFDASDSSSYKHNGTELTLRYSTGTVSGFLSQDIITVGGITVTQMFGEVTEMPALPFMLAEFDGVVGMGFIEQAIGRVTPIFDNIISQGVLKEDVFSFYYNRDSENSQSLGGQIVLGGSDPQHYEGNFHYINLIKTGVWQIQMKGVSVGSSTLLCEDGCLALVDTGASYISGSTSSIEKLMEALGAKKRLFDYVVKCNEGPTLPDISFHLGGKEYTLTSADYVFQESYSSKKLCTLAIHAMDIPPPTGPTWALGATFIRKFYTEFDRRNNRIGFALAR
The experiment in a line: In-vitro renin inhibition assay (modified Cayman renin inhibitor screening assay, fluorescence). Type of assay: biochemical. Set-up: purchased Cayman 10006270. The settings on record: 37° C., 30 mins; for inhibition at 0.1 µM: read-out: Renin inhibition (percent inhibition of renin activity) at 0.1 μM; for inhibition at 1 µM: compound concentration 1 μM, read-out: Renin inhibition (percent inhibition of renin activity) at 1 μM. The method, then:
In-Vitro Renin Inhibition Assay
The enzymatic in vitro assay was performed in 96 well polypropylene plate (Nunc), using a modified Renin inhibitor screening assay protocol (Cayman, cat no: 10006270). The reaction system comprised assay buffer containing 50 mM Tris-HCL, pH=8.0 & 100 mM sodium chloride, human recombinant renin (1:20 diluted with fixed activity), synthetic renin substrates (9.5 μM) and different concentrations of renin inhibitors in DMSO in a total reaction system of 100 μl. The entire incubation mixture were incubated at 37° C. for 30 mins and the fluorescence was read in kinetic mode using excitation wavelengths of 335-345 nm and emission wavelengths of 485-510 nm. Enzyme inhibition was determined by percent inhibition of renin activity.

For the compound `Cc1cc(Cl)c(OCCOc2ccc(CC(CN)C(=O)N3CCCc4ccccc43)cc2)c(Cl)c1` (stereo not drawn) [Example 2, 3-Amino-2-{4-[2-(2,6-dichloro-4-methyl-phenoxy)-ethoxy]-benzyl}-1-(3,4-dihydro-2H-quinolin-1-yl)-propan-1-one], the inhibition (as a rule, the drop in the measured response relative to a control, in per cent) at 1 µM turned out to be 97.3%. Moreover, the inhibition at 0.1 µM (compound concentration 0.1 μM) was 90.5%.

Take `Cc1cc(Cl)c(OCCOc2ccc(CC(CN)C(=O)N3CCOc4ccccc43)cc2)c(Cl)c1` (stereo not drawn) [Example 4, 3-Amino-2-{4-[2-(2,6-dichloro-4-methyl-phenoxy)-ethoxy]-benzyl}-1-(2,3-dihydro-benzo[1,4]oxazin-4-yl)-propan-1-one]: the inhibition at 1 µM stood at 73.5%.

For `Cc1cc(Cl)c(OCCOc2ccc(CC(CN)C(=O)N3CCCc4cc(Cl)ccc43)cc2)c(Cl)c1` (stereo not drawn) [Example 5, 3-Amino-1-(6-chloro-3,4-dihydro-2H-quinolin-1-yl)-2-{4-[2-(2,6-dichloro-4-methyl-phenoxy)-ethoxy]-benzyl}-propan-1-one], the inhibition at 1 µM came to 79.6%.

With `Cc1cc(Cl)c(OCCOc2ccc(CC(CN)C(=O)N3CCCc4cc(Br)ccc43)cc2)c(Cl)c1` (stereo not drawn) [Example 6, 3-Amino-1-(6-bromo-3,4-dihydro-2H-quinolin-1-yl)-2-{4-[2-(2,6-dichloro-4-methyl-phenoxy)-ethoxy]-benzyl}-propan-1-one], the inhibition at 1 µM is 86.5%.

`Cc1cc(Cl)c(OCCOc2ccc(CC(CN)C(=O)N3CCCc4ccc(C)c(C)c43)cc2)c(Cl)c1` (stereo not drawn) [Example 9, 3-Amino-2-{4-[2-(2,6-dichloro-4-methyl-phenoxy)-ethoxy]-benzyl}-1-(7,8-dimethyl-3,4-dihydro-2H-quinolin-1-yl)-propan-1-one]: the inhibition at 1 µM came to 98.1%. Also, for the setting “compound concentration 0.1 μM”, the inhibition at 0.1 µM was found to be 80.5%.

For the compound `Cc1cc(Cl)c(OCCOc2ccc(CC(CN)C(=O)N3CCCc4cccc(F)c43)cc2)c(Cl)c1` (stereo not drawn) [Example 11, 3-Amino-2-{4-[2-(2,6-dichloro-4-methyl-phenoxy)-ethoxy]-benzyl}-1-(8-fluoro-3,4-dihydro-2H-quinolin-1-yl)-propan-1-one], the inhibition at 1 µM amounted to 68.5%.

Take `COc1ccc2c(c1)CCCN2C(=O)C(CN)Cc1ccc(OCCOc2c(Cl)cc(C)cc2Cl)cc1` (stereo not drawn) [Example 13, 3-Amino-2-{4-[2-(2,6-dichloro-4-methyl-phenoxy)-ethoxy]-benzyl}-1-(6-methoxy-3,4-dihydro-2H-quinolin-1-yl)-propan-1-one]: the inhibition at 1 µM was 96.5%. For the same compound, where the note is “compound concentration 0.1 μM”, the inhibition at 0.1 µM turned out to be 32.1%.

For `Cc1cc(Cl)c(OCCOc2ccc(CC(CN)C(=O)N3CCCc4cc(Cl)cc(Cl)c43)cc2)c(Cl)c1` (stereo not drawn) [Example 14, 3-Amino-1-(6,8-dichloro-3,4-dihydro-2H-quinolin-1-yl)-2-{4-[2-(2,6-dichloro-4-methyl-phenoxy)-ethoxy]-benzyl}-propan-1-one], the inhibition at 1 µM was found to be 87%. In addition, for the setting “compound concentration 0.1 μM”, the inhibition at 0.1 µM is 41.8%.

For `Cc1cc(Cl)c(OCCOc2ccc(CC(CN)C(=O)N3CCCc4cc(C(F)(F)F)ccc43)cc2)c(Cl)c1` (stereo not drawn) [Example 15, 3-Amino-2-{4-[2-(2,6-dichloro-4-methyl-phenoxy)-ethoxy]-benzyl}-1-(6-trifluoromethyl-3,4-dihydro-2H -quinolin-1-yl)-propan-1-one], the inhibition at 1 µM was found to be 98.7%. Further, the inhibition at 0.1 µM (compound concentration 0.1 μM) was determined as 99.2%.

Consider `Cc1cc(Cl)c(OCCOc2ccc(CC(CN)C(=O)N3CCCc4cc(C)ccc43)cc2)c(Cl)c1` (stereo not drawn) [Example 16, 3-Amino-2-{4-[2-(2,6-dichloro-4-methyl-phenoxy)-ethoxy]-benzyl}-1-(6-methyl-3,4-dihydro-2H-quinolin-1-yl)-propan-1-one], for which the inhibition at 1 µM was determined as 87.4%. In addition, the inhibition at 0.1 µM (compound concentration 0.1 μM) came to 52.6%.

`COc1cc2c(cc1OC)CN(C(=O)C(CN)Cc1ccc(OCCOc3c(Cl)cc(C)cc3Cl)cc1)CC2` (stereo not drawn) [Example 17, 2-Aminomethyl-3-{4-[2-(2,6-dichloro-4-methyl-phenoxy)-ethoxy]-phenyl}-1-(6,7-dimethoxy-3,4-dihydro-1H-isoquinolin-2-yl)-propan-1-one]: the inhibition at 1 µM amounted to 53.6%.

In the case of `Cc1cc(Cl)c(OCCOc2ccc(CC(CN)C(=O)N3CCC(C)CC3)cc2)c(Cl)c1` (stereo not drawn) [Example 18, 3-Amino-2-{4-[2-(2,6-dichloro-4-methyl-phenoxy)-ethoxy]-benzyl}-1-(4-methyl-piperidin-1-yl)-propan-1-one], the inhibition at 1 µM worked out at 65.8%.

As for `Cc1cc(Cl)c(OCCOc2ccc(CC(CN)C(=O)N3CCCc4cc(F)ccc43)cc2)c(Cl)c1` (stereo not drawn) [Example 20, 3-Amino-2-{4-[2-(2,6-dichloro-4-methyl-phenoxy)-ethoxy]-benzyl}-1-(6-fluoro-3,4-dihydro-2H-quinolin-1-yl)-propan-1-one], the inhibition at 1 µM was 96.1%. Also, where the note is “compound concentration 0.1 μM”, the inhibition at 0.1 µM is 68%.

As for `Cc1cc(Cl)c(OCCOc2ccc(CC(CN)C(=O)N3CCCC3)cc2)c(Cl)c1` (stereo not drawn) [Example 23, 3-Amino-2-{4-[2-(2,6-dichloro-4-methyl-phenoxy)-ethoxy]-benzyl}-1-pyrrolidin-1-yl-propan-1-one], the inhibition at 1 µM turned out to be 81.1%. The inhibition at 0.1 µM (compound concentration 0.1 μM) was 59.5%.

In the case of `Cc1cc(Cl)c(OCCOc2ccc(CC(CN)C(=O)N3CCOCC3)cc2)c(Cl)c1` (stereo not drawn) [Example 25, 3-Amino-2-{4-[2-(2,6-dichloro-4-methyl-phenoxy)-ethoxy]-benzyl}-1-morpholin-4-yl-propan-1-one hydrochloride], the inhibition at 1 µM amounted to 76.4%. For the same compound, the inhibition at 0.1 µM (compound concentration 0.1 μM) was found to be 45.1%.

With `Cc1cc(Cl)c(OCCOc2ccc(CC(CN)C(=O)N3CCCc4cc(OCC(F)(F)F)ccc43)cc2)c(Cl)c1` (stereo not drawn) [Example 28, 3-Amino-2-{4-[2-(2,6-dichloro-4-methyl-phenoxy)-ethoxy]-benzyl}-1-[6-(2,2,2-trifluoro-ethoxy)-3,4-dihydro-2H-quinolin-1-yl]-propan-1-one hydrochloride], the inhibition at 0.1 µM (compound concentration 0.1 μM) is 73.8%.

In the case of `COC(=O)[C@H]1CCCN1C(=O)C(CN)Cc1ccc(OCCOc2c(Cl)cc(C)cc2Cl)cc1.Cl` (stereo partly drawn) [Example 29, D-(2-Aminomethyl-3-{4-[2-(2,6-dichloro-4-methyl-phenoxy)-ethoxy]-phenyl}-propionyl)-pyrrolidine-2-carboxylic acid methyl ester hydrochloride], the “Renin inhibition (percent inhibition of renin activity) at 0.1 μM” value (compound concentration 0.1 μM) is reported as 90.3.

Consider `COC1CCCN(C(=O)C(CN)Cc2ccc(OCCOc3c(Cl)cc(C)cc3Cl)cc2)C1` (stereo not drawn) [Example 30, 2-Aminomethyl-3-{4-[2-(2,6-dichloro-4-methyl-phenoxy)-ethoxy]-phenyl}-1-(3-methoxy-piperidin-1-yl)-propan-1-one hydrochloride], for which the inhibition at 1 µM turned out to be 92.9%. The inhibition at 0.1 µM (compound concentration 0.1 μM) was found to be 92.8%.

Regarding `Cc1ccc(OCCOc2ccc(CC(CN)C(=O)N3CCCc4cc(C(F)(F)F)ccc43)cc2)c(Cl)c1` (stereo not drawn) [Example 33, 3-Amino-2-{4-[2-(2-chloro-4-methyl-phenoxy)-ethoxy]-benzyl}-1-(6-trifluoromethyl-3,4-dihydro-2H-quinolin-1-yl)-propan-1-one], the inhibition at 1 µM is 89.2%. Further, the inhibition at 0.1 µM (compound concentration 0.1 μM) was determined as 92.9%.

As to `NCC(Cc1ccc(OCCOc2c(F)cccc2F)cc1)C(=O)N1CCCc2cc(C(F)(F)F)ccc21` (stereo not drawn) [Example 34, 3-Amino-2-{4-[2-(2,6-difluoro-phenoxy)-ethoxy]-benzyl}-1-(6-trifluoromethyl-3,4-dihydro-2H-quinolin-1-yl)-propan-1-one hydrochloride], for the setting “compound concentration 0.1 μM”, the inhibition at 0.1 µM is 31.2%.

Take `NCC(Cc1ccc(OCCOc2c(F)cccc2F)cc1)C(=O)N1CCCc2cc(F)ccc21` (stereo not drawn) [Example 35, 3-Amino-2-{4-[2-(2,6-difluoro-phenoxy)-ethoxy]-benzyl}-1-(6-fluoro-3,4-dihydro-2H-quinolin-1-yl)-propan-1-one hydrochloride]: the inhibition at 0.1 µM (compound concentration 0.1 μM) is 26.3%.

In the case of `NCC(Cc1ccc(OCCOc2ccc(F)cc2F)cc1)C(=O)N1CCCc2cc(C(F)(F)F)ccc21` (stereo not drawn) [Example 36, 3-Amino-2-{4-[2-(2,4-difluoro-phenoxy)-ethoxy]-benzyl}-1-(6-trifluoromethyl-3,4-dihydro-2H-quinolin-1-yl)-propan-1-one hydrochloride], where the note is “compound concentration 0.1 μM”, the inhibition at 0.1 µM came out at 45%.

For `NCC(Cc1ccc(OCCOc2ccc(Cl)cc2Cl)cc1)C(=O)N1CCCc2cc(F)ccc21` (stereo not drawn) [Example 37, 3-Amino-2-{4-[2-(2,4-dichloro-phenoxy)-ethoxy]-benzyl}-1-(6-fluoro-3,4-dihydro-2H-quinolin-1-yl)-propan-1-one hydrochloride], the inhibition at 0.1 µM (compound concentration 0.1 μM) is 36.4%.

Consider `NCC(Cc1ccc(OCCOc2ccc(Cl)cc2Cl)cc1)C(=O)N1CCCc2cc(C(F)(F)F)ccc21` (stereo not drawn) [Example 38, 3-Amino-2-{4-[2-(2,4-dichloro-phenoxy)-ethoxy]-benzyl}-1-(6-trifluoromethyl-3,4-dihydro-2H-quinolin-1-yl)-propan-1-one hydrochloride chloride], for which, under “compound concentration 0.1 μM”, the inhibition at 0.1 µM was 35.4%.

With `NCC(Cc1ccc(OCCOc2ccc(Cl)cc2F)cc1)C(=O)N1CCCc2cc(F)ccc21` (stereo not drawn) [Example 39, 3-Amino-2-{4-[2-(4-chloro-2-fluoro-phenoxy)-ethoxy]-benzyl}-1-(6-fluoro-3,4-dihydro-2H-quinolin-1-yl)-propan-1-one hydrochloride], under “compound concentration 0.1 μM”, the inhibition at 0.1 µM was determined as 36.3%.
